Assay results from paper PMC9000871, “Rhodamine 101 Conjugates of Triterpenoic Amides Are of Comparable Cytotoxicity as Their Rhodamine B Analogs” (Molecules, 2022).

Assays:
[1] = test system: MCF-7 (breast adenocarcinoma); assay: SRB cytotoxicity assay, MCF-7; assay type: cell-based; conditions: Homo sapiens, MCF7, 72 h of treatment, mean ± standard mean error
From the text: (§1) The cell lines were obtained from Department of Oncology (Martin-Luther-University Halle Wittenberg; they were bought from ATCC; A 375 (CRL-1619), HT29 (HTB-38), MCF7 (HTM-22), A2780 (HTP-77), FaDu (HTP-43), NIH 3T3 (CRL-1658), HEK-293 (CRL-1573)). Cultures were maintained as monolayers in RPMI 1640 medium with L-glutamine (Capricorn Scientific GmbH, Ebsdorfergrund, Germany) supplemented with 10% heat inactivated fetal bovine serum (Sigma-Aldrich Chemie GmbH, Steinheim, Germany) and penicillin/streptomycin (1%, Capricorn Scientific GmbH, Ebsdorfergrund, Germany) at 37 °C in a humidified atmosphere with 5% CO2. The cytotoxicity of the compounds was evaluated using the sulforhodamine-B (Kiton-Red S, ABCR) micro culture colorimetric assay using confluent cells in 96-well plates with the seeding of the cells on day 0 applying appropriate cell densities to prevent confluence of the cells during the period of the experiment. On day 1, the cells were treated with six different concentrations (1, 3, 7, 12, 20, and 30 μM); thereby, the final concentration of DMSO was always <0.5%, generally regarded as non-toxic to the cells. On day 4, the supernatant medium was discarded; the cells were fixed with 10% trichloroacetic acid. After another day at 4 °C, the cells were washed in a strip washer and dyed with the SRB solution (100 μL, 0.4% in 1% acetic acid) for about 20 min to be followed by washing of the plates (four times, 1% acetic acid) and air-drying overnight. Furthermore, tris base solution (200 μL, 10 mM) was added to each well and absorbance was measured at λ = 570 nm employing a reader (96 wells, Tecan Spectra, Crailsheim, Germany). The EC50 values were averaged from three independent experiments performed each in triplicate calculated from semi logarithmic dose response curves applying a non-linear four-parameter Hills-slope equation (GraphPad Prism5; variables top and bottom were set to 100 and 0, respectively).

[2] = test system: HEK293 (human embryonic kidney), non-malignant; assay: SRB cytotoxicity assay, HEK293; assay type: cell-based; conditions: 72 h of treatment, mean ± standard mean error
From the text: as §1

[3] = test system: HT29 (colon adenocarcinoma); assay: SRB cytotoxicity assay, HT29; assay type: cell-based, human; conditions: Homo sapiens, mean ± standard mean error
From the text: as §1

A375 (melanoma) = assay: SRB cytotoxicity assay, A375; assay type: cell-based, human; conditions: Homo sapiens, mean ± standard mean error
From the text: as §1

[4] = test system: A2780 (ovarian carcinoma); assay: SRB cytotoxicity assay, A2780; assay type: cell-based; conditions: Homo sapiens, 72 h of treatment, mean ± standard mean error
From the text: as §1

[5] = test system: NIH 3T3 (fibroblasts), non-malignant; assay: SRB cytotoxicity assay, NIH 3T3; assay type: cell-based; conditions: Mus musculus, mean ± standard mean error
From the text: as §1

HeLa (cervical cancer) = assay: SRB cytotoxicity assay, HeLa; assay type: cell-based; conditions: Homo sapiens, 72 h of treatment, mean ± standard mean error
[6] = test system: FaDu (hypopharyngeal carcinoma); assay: SRB cytotoxicity assay, FaDu; assay type: cell-based; conditions: Homo sapiens, 72 h of treatment, mean ± standard mean error
From the text: as §1

[7] = test system: human tumor cell lines (A375, HT29, MCF-7, A2780, FaDu); assay: SRB cytotoxicity assay, statements across the cell line panel; assay type: cell-based; conditions: span over all cell lines tested, cut-off of the assay 30 µM
From the text: as §1, with “On day 1, the cells were treated with six different concentrations (1, 3, 7, 12, 20, and 30 μM); thereby, the final concentration of DMSO was always <0.5%, generally regarded as non-toxic to the cells. On day 4, the supernatant medium was discarded; the cells were fixed with 10% trichloroacetic acid. After another day at 4 °C, the cells were washed in a strip washer and dyed with the SRB solution (100 μL, 0.4% in 1% acetic acid) for about 20 min to be followed by washing of the plates (four times, 1% acetic acid) and air-drying overnight.” left out

[8] = NIH3T3, 72 h, 72 h of treatment

## CC(=O)O[C@H]1CC[C@@]2(C)C(CC[C@]3(C)C2CC=C2C4CC(C)(C)CC[C@]4(C(=O)N4CCCN(C(=O)c5ccccc5C5=c6cc7c8c(c6Oc6c5cc5c9c6CCCN9CCC5)CCC[N+]=8CCC7)CC4)CC[C@]23C)C1(C)C (stereo partly shown) [compound 26]
[1]
  EC50: 0.12 ± 0.03 µM
[2]
  EC50: 0.05 ± 0.01 µM
[3]; HT-29, 72 h, 72 h of treatment
  EC50: 0.13 ± 0.03 µM
A375 (melanoma); A-375, 72 h, 72 h of treatment
  EC50: 0.07 ± 0.01 µM
[4]
  EC50: 0.07 ± 0.03 µM
[5]; [8]
  EC50: 0.26 ± 0.05 µM
HeLa (cervical cancer)
  EC50: 0.1 ± 0.05 µM

## CC(=O)O[C@H]1CC[C@@]2(C)C(CC[C@]3(C)C2CCC2C4[C@H](C(C)=O)CC[C@]4(C(=O)N4CCCN(C(=O)c5ccccc5C5=c6cc7c8c(c6Oc6c5cc5c9c6CCCN9CCC5)CCC[N+]=8CCC7)CC4)CC[C@]23C)C1(C)C (stereo partly shown) [compound 28]
[1]
  EC50: 0.2 ± 0.05 µM
[2]
  EC50: 0.12 ± 0.03 µM
[3]; HT-29, 72 h, 72 h of treatment
  EC50: 0.35 ± 0.05 µM
A375 (melanoma); A-375, 72 h, 72 h of treatment
  EC50: 0.2 ± 0.03 µM
[4]
  EC50: 0.17 ± 0.04 µM
[5]; [8]
  EC50: 0.39 ± 0.05 µM
HeLa (cervical cancer)
  EC50: 0.31 ± 0.15 µM

## CC(=O)[C@@H]1CC[C@]2(C(=O)O)CC[C@]3(C)[C@H](CC[C@@H]4[C@@]5(C)CC[C@H](O)C(C)(C)[C@@H]5CC[C@]43C)[C@@H]12 [PA, platanic acid, reference compound]
[1]
  EC50: > 30 µM
[3]; HT-29, 72 h, 72 h of treatment
  EC50: > 30 µM
A375 (melanoma); A-375, 72 h, 72 h of treatment
  EC50: > 30 µM
[4]
  EC50: > 30 µM
[5]; [8]
  EC50: > 30 µM
[6]
  EC50: > 30 µM

## CC(=O)O[C@H]1CC[C@@]2(C)C(CC[C@]3(C)C2CCC2C4[C@H](C(C)=O)CC[C@]4(C(=O)O)CC[C@]23C)C1(C)C (stereo partly drawn) [compound 4, 3β-Acetyloxy-20-oxo-30-norlupan-28-oic Acid]
[1]
  EC50: > 30 µM
[7]
  EC50 values across the cell lines: not cytotoxic at all within the limits of the assay
[3]; HT-29, 72 h, 72 h of treatment
  EC50: > 30 µM
A375 (melanoma); A-375, 72 h, 72 h of treatment
  EC50: > 30 µM
[4]
  EC50: > 30 µM
[5]; [8]
  EC50: > 30 µM
[6]
  EC50: > 30 µM

## CC(=O)O[C@H]1CC[C@@]2(C)C(CC[C@]3(C)C2CC=C2C4[C@@H](C)[C@H](C)CC[C@]4(C(=O)O)CC[C@]23C)C1(C)C (stereo partly drawn) [compound 3, 3β-Acetyloxy-urs-12-en-oic Acid]
[1]
  EC50: 12.1 ± 1.2 µM
[3]; HT-29, 72 h, 72 h of treatment
  EC50: 17.3 ± 1.5 µM
A375 (melanoma); A-375, 72 h, 72 h of treatment
  EC50: 11.4 ± 1.4 µM
[4]
  EC50: 8.3 ± 0.9 µM
[5]; [8]
  EC50: 16.4 ± 1.7 µM
[6]
  EC50: 10.7 ± 0.8 µM

## C=C(C)[C@@H]1CC[C@]2(C(=O)O)CC[C@]3(C)[C@H](CC[C@@H]4[C@@]5(C)CC[C@H](O)C(C)(C)[C@@H]5CC[C@]43C)[C@@H]12 [BA, betulinic acid, reference compound]
[1]
  EC50: 10.2 ± 1.2 µM
[3]; HT-29, 72 h, 72 h of treatment
  EC50: 14.4 ± 2.3 µM
A375 (melanoma); A-375, 72 h, 72 h of treatment
  EC50: 17.7 ± 0.4 µM
[4]
  EC50: 8.8 ± 0.9 µM
[5]; [8]
  EC50: 16.1 ± 1.4 µM
[6]
  EC50: 13.7 ± 0.9 µM

## CC(=O)O[C@H]1CC[C@@]2(C)C(CC[C@]3(C)C2CC=C2C4[C@@H](C)[C@H](C)CC[C@]4(C(=O)N4CCCN(C(=O)c5ccccc5C5=c6cc7c8c(c6Oc6c5cc5c9c6CCCN9CCC5)CCC[N+]=8CCC7)CC4)CC[C@]23C)C1(C)C (stereo partly shown) [compound 27]
[1]
  EC50: 0.08 ± 0.03 µM
[2]
  EC50: 0.04 ± 0.01 µM
[3]; HT-29, 72 h, 72 h of treatment
  EC50: 0.08 ± 0.02 µM
A375 (melanoma); A-375, 72 h, 72 h of treatment
  EC50: 0.06 ± 0.04 µM
[4]
  EC50: 0.05 ± 0.02 µM
[5]; [8]
  EC50: 0.24 ± 0.03 µM
HeLa (cervical cancer)
  EC50: 0.09 ± 0.06 µM

## CC(=O)O[C@H]1CC[C@@]2(C)C(CC[C@]3(C)C2CC=C2C4CC(C)(C)CC[C@]4(C(=O)O)CC[C@]23C)C1(C)C (stereo partly drawn) [compound 2, 3β-Acetyloxy-olean-12-en-oic Acid]
[1]
  EC50: 12.9 ± 1.9 µM
[3]; HT-29, 72 h of treatment
  EC50: 20.5 ± 1.7 µM
A375 (melanoma); A-375, 72 h of treatment
  EC50: 13 ± 1.1 µM
[4]
  EC50: 9.4 ± 0.5 µM
[5]; NIH3T3, 72 h of treatment
  EC50: 17.5 ± 1.5 µM
[6]
  EC50: 11.8 ± 0.9 µM
